Experimental data: patent US5147876A, “2,6-di,2,4,6-, 2,5,6-tri and 2,4,5,6-tetra-substituted pyrimidines, their pharmaceutically acceptable salts, pharmaceutical compositions containing same and their use in the treatment of neurological diseases” (Mitsui Petrochemical Industries, Ltd., priority 1988, dated 1992)
Structures can show the parent of a compound that is named as a salt.

System: neuro-2a (mouse neuroblastoma cells)
Test: Action on neuro-2a: proportion of cells containing outgrown neurites
Type: cell-based
Conditions: mean ± S.D.
Experimental: The effects of the compounds of this invention on neuroblastoma cells were examined by the following method.
Mouse neuro 2a cells in the logarithmic growth period in the Dulbecco's modified Eagle's medium DMEM, containing 100 units/ml of penicillin G sodium and 100 micrograms/ml of streptomycin sulfate]containing 10 % of FCS were seeded in a 48-well plate so that the number of cells was 1,000 cells/well, and cultured for one day in 0.25 ml of the culture fluid in each well in an incubator containing 5 % of carbon dioxide gas in air at 37° C. Then, a 4 % aqueous glutaraldehyde solution in the same amount as a medium (0.25 ml) was added, and the culture fluid was left to stand at room temperature for 2 hours to fix the cells. After washing with water, a 0.05 % aqueous solution of methylene blue was added to stain the cells Under a microscope, the number of cells containing outgrown neurites (cells having at least one neurite with a length of at least two times as large as the long diameter of the cell) was counted visually, and the proportion of these cells in the entire cells was calculated. The well was observed over 5 or more visual fields (at least 2 % of the entire surface area of the well) continuous to the left and right from a mark put at the center of the well, and more than 200 cells was counted. One drug compound was used in 6 different concentrations at most, and three runs were conducted for each concentrations.

Row | Structure (SMILES) | Number of cells having neurites with a length at least two times the diameter of each cell/total number of cells (0.1 mM) | Number of cells having neurites with a length at least two times the diameter of each cell/total number of cells (0.3 mM) | Number of cells having neurites with a length at least two times the diameter of each cell/total number of cells (0.03 mM) | also measured
1 | CN(C(=O)c1ccccc1)c1ccnc(N2CCC(c3ccccc3)CC2)n1 [Compound 165] | 41.0 ± 0.7% | 12.4 ± 1.8% |  | 
2 | CCN(C(=O)c1ccccc1)c1nccc(N2CCC(c3ccccc3)CC2)n1 [Compound 636] | 8.9 ± 5.2% |  | 12.1 ± 3.4% | 
3 | CC(C)N(C(=O)c1ccccc1)c1nccc(N2CCC(c3ccccc3)CC2)n1 [Compound 652] | 12.5 ± 2.8% |  | 6.1 ± 0.6% | 
4 | Cc1ccc(S(=O)(=O)N(C)c2ccnc(N3CCC(c4ccccc4)CC3)n2)cc1 [Compound 2012] |  | 6.6 ± 3.1% | 6.6 ± 1.2% | 
5 | CN(C(=O)c1ccccc1)c1ccnc(N2CCC(c3ccc([N+](=O)[O-])cc3)CC2)n1 [Compound 2076] |  |  | 1.9 ± 1.3% | Number of cells having neurites with a length at least two times the diameter of each cell/total number of cells (0.01 mM): 4.8 ± 1.4%
6 | CN(C(=O)c1ccccc1)c1ccnc(N2CCC(NC(=O)c3ccccc3)CC2)n1 [Compound 2174] |  |  |  | Number of cells having neurites with a length at least two times the diameter of each cell/total number of cells (0.01 mM): 2.5 ± 1.0%
7 | CN1C(=O)Cc2cnc(N3CCN(S(C)(=O)=O)CC3)nc21 [Compound 3404] |  | 3.4 ± 1.4% | 3.3 ± 1.3% | 
8 | CCOC(=O)c1cnc(N2CCCCC2)nc1CSC [Compound 816] | 4.0 ± 0.3% |  | 4.7 ± 2.1% | 
9 | CNc1nc(N2CCC(c3ccccc3)CC2)ncc1C [Compound 1098] | 5.7 ± 2.0% |  | 10.2 ± 0.9% | Number of cells having neurites with a length at least two times the diameter of each cell/total number of cells (0.01 mM): 5.3 ± 1.4%
10 | CCOC(=O)C1CCN(c2nccc(N(C)C(=O)c3ccccc3)n2)CC1 [Compound 2100] | 4.7 ± 1.4% |  | 4.4 ± 0.8% | 
11 | CNc1nccc(N2CCC(c3ccccc3)CC2)n1 [Compound 1122] |  |  | 10.2 ± 3.8% | Number of cells having neurites with a length at least two times the diameter of each cell/total number of cells (0.01 mM): 4.2 ± 2.1%
12 | CN(C(=O)c1ccccc1)c1ccnc(N2CCC(C(=O)c3ccccc3)CC2)n1 [Compound 306] | 2.8 ± 0.8% |  | 7.7 ± 0.5% | 
13 | CN1CCN(C(=O)N(C)c2ccnc(N3CCC(c4ccccc4)CC3)n2)CC1 [Compound 2234] | 5.7 ± 2.8% |  | 5.1 ± 3.2% | 
14 | CN(C(=O)c1ccccc1)c1ccnc(N2CCC(OC(=O)c3ccccc3)CC2)n1 [Compound 2226] | 15.4 ± 3.9% |  | 6.4 ± 3.3% | 
15 | CNc1ccnc(N2CCCc3ccccc32)n1 [Compound 1034] | 7.6 ± 2.1% | 11.3 ± 1.6% | 3.9 ± 2.8% | 
16 | CNc1ccnc(N2CCc3ccccc3C2)n1 [Compound 1038] | 2.9 ± 0.3% |  | 2.2 ± 0.4% | 
17 | CN(C(=O)c1ccccc1)c1ccnc(N(Cc2ccccc2)Cc2ccccc2)n1 [Compound 2108] |  |  | 4.8 ± 2.0% | Number of cells having neurites with a length at least two times the diameter of each cell/total number of cells (1 mM): 13.5 ± 0.1%
18 | CN(C(=O)c1ccccc1)c1nccc(N2CCC(C(C)(C)C)CC2)n1 [Compound 620] |  |  | 4.0 ± 1.3% | Number of cells having neurites with a length at least two times the diameter of each cell/total number of cells (0.01 mM): 4.7 ± 0.4%

Row | Structure (SMILES) | Number of cells having neurites with a length at least two times the diameter of each cell/total number of cells (0.1 mM) | Number of cells having neurites with a length at least two times the diameter of each cell/total number of cells (0.3 mM) | Number of cells having neurites with a length at least two times the diameter of each cell/total number of cells (0.03 mM) | also measured
19 | COC(=O)c1cnc(NC(C)C)nc1C [Compound 800, 2-isopropylamino-4-methyl-5-methoxycarbonylpyrimidine] |  | 11.4 ± 1.2% |  | Number of cells having neurites with a length at least two times the diameter of each cell/total number of cells (1 mM): 25.7 ± 1.9%; Number of cells having neurites with a length at least two times the diameter of each cell/total number of cells (3 mM): 22.3 ± 0.7%; Number of cells having neurites with a length at least two times the diameter of each cell/total number of cells (10 mM): 16.9 ± 0.8%
20 | CN(C(=O)c1ccccc1)c1ccnc(N2CCC(c3ccccc3)CC2)n1 [Compound 171] | 37.1 ± 1.9% | 8.8 ± 2.6% |  | 
21 | CN(C(=O)c1ccccc1)c1ccnc(N2CCC(O)CC2)n1 [Compound 2060] |  |  | 3.6 ± 0.1% | Number of cells having neurites with a length at least two times the diameter of each cell/total number of cells (1 mM): 7.6 ± 0.7%
22 | Cc1ccc(C(c2ccccc2)N2CCN(c3ncc4c(n3)N(C)C(=O)C4)CC2)cc1.Cc1ccc(S(=O)(=O)O)cc1 (stereo not drawn) [Compound 3152, 2-(4-(α(4-methylphenyl)benzyl)piperazino)-5,6-dihydro-7-methyl-6-oxo(7H)pyrrolo[2,3-d)pyrimidine p-toluenesulfonate] | 6.8 ± 4.2% |  | 11.4 ± 3.1% | 
23 | CN(C(=O)c1ccc([N+](=O)[O-])cc1)c1nccc(N2CCC(c3ccccc3)CC2)n1 [Compound 676] |  | 6.0 ± 1.1% |  | Number of cells having neurites with a length at least two times the diameter of each cell/total number of cells (1 mM): 4.2 ± 2.1%
24 | CN(C(=O)c1ccc(NC(=O)c2ccccc2)cc1)c1ccnc(N2CCC(c3ccccc3)CC2)n1 [Compound 2194] | 9.5 ± 3.5% | 7.6 ± 2.8% |  | 
25 | CNc1nc(N2CCCc3ccccc32)ncc1C [Compound 1102] | 11.9 ± 0.7% | 10.1 ± 3.0% |  | 
26 | CN(C(=O)c1ccccc1)c1ccnc(NC2CCN(C(=O)c3ccccc3)CC2)n1 [Compound 2202] | 2.2 ± 2.0% |  |  | 
27 | CN(C)C(=O)N(C)c1ccnc(N2CCC(c3ccccc3)CC2)n1 [Compound 2294] | 8.1 ± 1.6% |  | 3.7 ± 0.9% | 
28 | Cc1ccc(C(=O)N(C)c2ccnc(N3CCC(c4ccccc4)CC3)n2)cc1 [Compound 171-3] | 28.8 ± 3.1% | 19.5 ± 7.0% |  | 
29 | CN(C(=O)c1ccccc1)c1ccnc(N2CCC(N(C)C)CC2)n1 [Compound 2148] | 4.2 ± 1.2% |  | 4.5 ± 1.3% | 
30 | CN1C(=O)Cc2cnc(N3CCN(C(c4ccccc4)c4ccccc4)CC3)nc21 [Compound 3128, 2-(4-diphenylmethylpiperazino)-5,6-dihydro-7-methyl-6-oxo(7H)pyrrolo2,3-d]pyrimidine hydrochloride] | 14.2 ± 1.9% | 11.9 ± 4.5% |  | 
31 | CN1C(=O)Cc2cnc(N3CCN(C4c5ccccc5-c5ccccc54)CC3)nc21 [Compound 3200] |  |  |  | Number of cells having neurites with a length at least two times the diameter of each cell/total number of cells (0.01 mM): 2.7 ± 0.7%
32 | CN(C(=O)c1ccccc1)c1ccnc(NC2CCNCC2)n1 [Compound 2188] | 2.4 ± 0.9% | 3.8 ± 1.1% |  | 
33 | CC(C)N(Cc1ccccc1)c1nccc(N(C)C(=O)c2ccccc2)n1 [Compound 662] | 3.1 ± 1.6% | 2.6 ± 0.9% |  | 
34 | CN1C(=O)Cc2cnc(N3CCN(C(c4ccccc4)(c4ccccc4)c4ccccc4)CC3)nc21 [Compound 3300] |  | 6.1 ± 1.2% |  | Number of cells having neurites with a length at least two times the diameter of each cell/total number of cells (1 mM): 7.8 ± 1.0%
35 | CC1CCN(c2nccc(N(C(=O)c3ccccc3)c3ccccc3)n2)CC1.Cc1ccc(S(=O)(=O)O)cc1 [Compound 150] | 13.6 ± 1.2% | 6.6 ± 3.0% | 9.3 ± 1.9% | 
